Test results taken from ChEMBL document CHEMBL5380809, “Discovery of Novel N-Hydroxy-1,2,4-oxadiazole-5-formamides as ASM Direct Inhibitors for the Treatment of Atherosclerosis” (J Med Chem, 2023).
Activity calls are given as the source filed them. No cut-off for these calls is given here.

How the values were obtained:
[1] = In vivo inhibition of aSMase in C57BL/6 mouse assessed as decrease in liver aSMase level at 40 mg/kg, ip bid for 1 week by ELISA method relative to control; type: functional; parameters: scale not given: the % may be the effect or the level left; settings: time 1 weeks
Mus musculus [2] = experiment: Antiatherosclerotic activity in high-fat diet fed ApoE-/- mouse assessed as reduction in aortic arch lipid accumulation at 12 to 40 mg/kg, ip bid measured after 8 weeks; type: functional, organism-based; settings: dose 12-40 mg/kg
HUVEC [3] = experiment: Antiinflammatory activity against HUVEC cells assessed as decrease in Ox-LDL-induced IL-6 mRNA level at 5 uM measured after 22 hrs by RT-PCR analysis; type: functional, cell-based; settings: Homo sapiens
[4] = AUC (0 to infinity) in ICR mouse at 10 mg/kg, po measured for 0.083 to 24 hrs by LC-MS/MS analysis; type: ADME, organism-based; parameters: time lower 0.083 hrs, dose 10 mg/kg, time upper 24 hrs, route po; settings: in vivo
HUVEC [5] = experiment: Upregulation of intracellular sphingomyelin level in LPS-induced HUVEC cells measured after 22 hrs by ELISA method; type: functional, cell-based; settings: Homo sapiens, dose <= 5.0 µM
HUVEC [6] = experiment: Downregulation of intracellular ceramide level in LPS-induced HUVEC cells at 5 uM measured after 22 hrs by ELISA method; type: functional, cell-based; settings: Homo sapiens
Mus musculus [7] = experiment: In vivo inhibition of aSMase in C57BL/6 mouse assessed as decrease in liver ceramide level at 6 to 40 mg/kg, ip bid for 1 week by ELISA method; type: functional, organism-based; settings: dose 6-40 mg/kg, time 1.0 weeks
[8] = AUC (0 to t) in ICR mouse at 10 mg/kg, po measured for 0.083 to 24 hrs by LC-MS/MS analysis; type: ADME, organism-based; parameters: time upper 24 hrs, time lower 0.083 hrs, dose 10 mg/kg, route po; settings: in vivo
[9] = target: T1, Sphingomyelin phosphodiesterase (Homo sapiens, UniProt P17405); experiment: Inhibition of recombinant human aSMase (62 to 628 residues) using HMU-PC as substrate incubated for 2 hrs by fluorescence based assay
T1 sequence (P17405 whole entry): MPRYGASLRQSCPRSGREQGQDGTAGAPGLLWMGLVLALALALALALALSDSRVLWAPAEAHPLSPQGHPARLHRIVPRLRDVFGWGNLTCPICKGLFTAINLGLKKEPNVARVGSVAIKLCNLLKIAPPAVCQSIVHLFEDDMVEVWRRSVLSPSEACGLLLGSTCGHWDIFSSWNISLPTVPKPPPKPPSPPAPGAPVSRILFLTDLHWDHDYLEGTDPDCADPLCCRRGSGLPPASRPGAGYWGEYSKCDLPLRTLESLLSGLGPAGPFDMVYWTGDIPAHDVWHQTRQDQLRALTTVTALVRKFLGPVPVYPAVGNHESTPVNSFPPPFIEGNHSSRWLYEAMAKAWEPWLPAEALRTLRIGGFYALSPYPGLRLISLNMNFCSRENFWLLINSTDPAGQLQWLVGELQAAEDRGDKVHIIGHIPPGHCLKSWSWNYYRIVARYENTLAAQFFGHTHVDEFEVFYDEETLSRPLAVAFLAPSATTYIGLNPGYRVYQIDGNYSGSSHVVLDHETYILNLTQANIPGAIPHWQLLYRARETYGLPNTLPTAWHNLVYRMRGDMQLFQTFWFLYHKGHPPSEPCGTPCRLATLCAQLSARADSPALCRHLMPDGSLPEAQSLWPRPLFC

HUVEC [10] = experiment: Downregulation of intracellular ceramide level in Ox-LDL-induced HUVEC cells at 5 uM measured after 22 hrs by ELISA method; type: functional, cell-based; settings: Homo sapiens
Mus musculus [11] = experiment: In vivo inhibition of aSMase in C57BL/6 mouse assessed as decrease in plasma ceramide level at 6 to 40 mg/kg, ip bid for 1 week by ELISA method; type: functional, organism-based; settings: dose 6-40 mg/kg, time 1.0 weeks
[12] = Cmax in ICR mouse at 1 mg/kg, iv measured for 0.083 to 24 hrs by LC-MS/MS analysis; type: ADME, organism-based; parameters: time lower 0.083 hrs, dose 1 mg/kg, time upper 24 hrs, route iv; settings: in vivo

- AUC(0-inf) [4]: 809 ng·h/mL
- AUC(0-t) [8]: 805 ng·h/mL
- IC50 [9]: 1500 nM
- Cmax [12]: 787 ng/mL
SMILES: O=C(NO)c1nc(-c2ccc(COc3ccc(Br)cc3)cc2)no1
- Activity [1]: 22%
- Activity (Mus musculus [2]): Active
- Activity (HUVEC [3]): Active
- Activity (HUVEC [5]): Dose-Dependent Effect
- Activity (HUVEC [6]): Active
- Activity (Mus musculus [7]): Active
- Activity (HUVEC [10]): Active
- Activity (Mus musculus [11]): Active
